A word on the Emax: it is the greatest response seen or fitted, relative to the assay's reference.

The text below walks through data of patent US9663528B2, “Substituted 1,2,3,4,6,8,12,12a-octahydro-1,4-methanodipyrido[1,2-a:1',2'-d]pyrazines and methods for treating viral infections” (priority 2012, dated 2017).

One data set concerns the target PXR (Homo sapiens (Human), UniProt O75469). The data set can be described thus: Human PXR activation assay (luciferase reporter gene assay, DPX2 cells). To be noted: human. Format: cell-based. As to the method: A stably transformed tumor cell line (DPX2) was plated on 96-well microtiter plates. DPX2 cells harbor the human PXR gene (NR112) and a luciferase reporter gene linked to two promoters identified in the human CYP3A4 gene, namely XREM and PXRE. […] The number of viable cells was determined and the reporter gene activity was assessed. Positive control: […]
On the technique in general: In a reporter assay the amount or activity of a reporter protein is the signal.

A short description of another data set: in vitro. The conditions noted are these: human, CC50 nM in MT-4.

PXR, sequence (O75469 whole entry): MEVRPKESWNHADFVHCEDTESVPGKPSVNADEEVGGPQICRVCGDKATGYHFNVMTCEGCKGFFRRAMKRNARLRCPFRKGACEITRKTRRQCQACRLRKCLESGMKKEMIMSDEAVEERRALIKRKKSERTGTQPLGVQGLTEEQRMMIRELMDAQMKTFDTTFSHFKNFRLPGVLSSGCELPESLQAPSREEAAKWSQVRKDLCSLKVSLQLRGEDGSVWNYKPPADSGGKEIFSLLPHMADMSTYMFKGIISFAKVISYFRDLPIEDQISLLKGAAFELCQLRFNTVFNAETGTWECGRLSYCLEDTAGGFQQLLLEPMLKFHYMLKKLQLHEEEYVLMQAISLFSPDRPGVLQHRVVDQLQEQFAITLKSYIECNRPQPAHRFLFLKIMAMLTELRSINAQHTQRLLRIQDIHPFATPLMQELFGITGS

Regarding `O=C(NCc1c(Cl)ccc(Cl)c1F)c1cn2c(c(O)c1=O)C(=O)N1[C@H]3CC[C@H](C3)[C@@H]1C2` [Compound 71, (1R,4S,12aR)-N-(3,6-dichloro-2-fluorobenzyl)-7-hydroxy-6,8-dioxo-1,2,3,4,6,8, 12,12a-octahydro-1,4-methanodipyrido[1,2-a:1′,2′-d]pyrazine-9-carboxamide], on PXR, the Emax at 24 h, 15 µM was 3%. In the data set “in vitro”, this compound registered a CC50 at 5 days of 4660 nM.

Turning to `O=C(NCc1cccc(Cl)c1)c1cn2c(c(O)c1=O)C(=O)N1[C@H]3CC[C@H](C3)[C@@H]1C2` [Compound 72, (1R,4S,12aR)-N-(3-chlorobenzyl)-7-hydroxy-6,8-dioxo-1,2,3,4,6,8,12,12a-octahydro-1,4-methanodipyrido[1,2-a:1′,2′-d]pyrazine-9-carboxamide], the Emax at 24 h, 15 µM at PXR was found to be 4%. Also, the CC50 at 5 days in the data set “in vitro” turned out to be 6260 nM.

`O=C(NCc1c(F)ccc(Cl)c1F)c1cn2c(c(O)c1=O)C(=O)N1[C@H]3CC[C@H](C3)[C@@H]1C2` [Compound 73, (1R,4S,12aR)-N-(3-chloro-2,6-difluorobenzyl)-7-hydroxy-6,8-dioxo-1,2,3,4,6,8,12,12a-octahydro-1,4-methanodipyrido[1,2-a:1′,2′-d]pyrazine-9-carboxamide] gave an Emax at 24 h, 15 µM at PXR of 7%. The compound also showed a CC50 at 5 days in the data set “in vitro” of 9190 nM.

The compound `O=C(NCc1ccc(F)c(Cl)c1)c1cn2c(c(O)c1=O)C(=O)N1[C@H]3CC[C@H](C3)[C@@H]1C2` [Compound 75, (1R,4S,12aR)-N-(3-chloro-4-fluorobenzyl)-7-hydroxy-6,8-dioxo-1,2,3,4,6,8,12,12a-octahydro-1,4-methanodipyrido[1,2-a:1′,2′-d]pyrazine-9-carboxamide] had an Emax at 24 h, 15 µM on PXR of 0%. This compound also showed a CC50 at 5 days in “in vitro” of 5290 nM.

At PXR, `O=C(NCc1cc(F)c(F)cc1F)c1cn2c(c(O)c1=O)C(=O)N1[C@H]3CC[C@H](C3)[C@@H]1C2` [Compound 79, (1R,4S,12aR)-7-hydroxy-6,8-dioxo-N-(2,4,5-trifluorobenzyl)-1,2,3,4,6,8,12,12a-octahydro-1,4-methanodipyrido[1,2-a:1′,2′-d]pyrazine-9-carboxamide] came in with an Emax at 24 h, 15 µM of 0%. The compound further had a CC50 at 5 days in “in vitro” of 12100 nM.

For the compound `O=C(NCc1cc(Cl)c(F)cc1F)c1cn2c(c(O)c1=O)C(=O)N1[C@H]3CC[C@H](C3)[C@@H]1C2` [Compound 80, (1R,4S,12aR)-N-(5-chloro-2,4-difluorobenzyl)-7-hydroxy-6,8-dioxo-1,2,3,4,6,8,12,12a-octahydro-1,4-methanodipyrido[1,2-a:1′,2′-d]pyrazine-9-carboxamide], the Emax at 24 h, 15 µM on PXR came out at 2%. The same compound yielded a CC50 at 5 days in the data set “in vitro” of 5040 nM.

For `O=C(NCc1c(F)cc(F)cc1F)c1cn2c(c(O)c1=O)C(=O)N1[C@H](C2)[C@H]2C[C@H](F)[C@@H]1C2` [Compound 81, (1R,3S,4S,12aS)-3-fluoro-7-hydroxy-6,8-dioxo-N-(2,4,6-trifluorobenzyl)-1,2,3,4,6,8,12,12a-octahydro-1,4-methanodipyrido[1,2-a:1′,2′-d]pyrazine-9-carboxamide], the maximal response (Emax) at 24 h, 15 µM at PXR is 1%. The compound also yielded a CC50 at 5 days in “in vitro” of 12300 nM.

As to `C[C@@H]1C[C@H]2C[C@@H]1[C@@H]1Cn3cc(C(=O)NCc4c(F)cc(F)cc4F)c(=O)c(O)c3C(=O)N21` [Compound 84, (1S,2R,4S,12aR)-7-hydroxy-2-methyl-6,8-dioxo-N-(2,4,6-trifluorobenzyl)-1,2,3,4,6,8,12,12a-octahydro-1,4-methanodipyrido[1,2-a:1′,2′-d]pyrazine-9-carboxamide], on PXR, the maximal response (Emax) at 24 h, 15 µM was found to be 21%. This compound also had a CC50 at 5 days in “in vitro” of 9730 nM.

As for `O=C(NCc1c(F)cc(F)cc1F)c1cn2c(c(O)c1=O)C(=O)N1[C@H]3CCC[C@H](C3)[C@H]1C2` [Compound 85, (6aS,7R,11S)-1-hydroxy-2,13-dioxo-N-(2,4,6-trifluorobenzyl)-6,6a,7,8,9,10,11,13-octahydro-2H-7,11-methanopyrido[1′,2′:4,5]pyrazino[1,2-a]azepine-3-carboxamide], the Emax at 24 h, 15 µM at PXR was 77%. Also, the CC50 at 5 days in the data set “in vitro” came to 10400 nM.

The compound `C[C@H]1C[C@@H]2C[C@H]1N1C(=O)c3c(O)c(=O)c(C(=O)NCc4c(F)cc(F)cc4F)cn3C[C@H]21` [Compound 86, (1R,3S,4R,12aS)-7-hydroxy-3-methyl-6,8-dioxo-N-(2,4,6-trifluorobenzyl)-1,2,3,4,6,8,12,12a-octahydro-1,4-methanodipyrido[1,2-a:1′,2′-d]pyrazine-9-carboxamide] returned a maximum response (Emax) at 24 h, 15 µM at PXR of 30%. The same compound showed a CC50 at 5 days in “in vitro” of 22400 nM.

For `O=C(NCc1cccc(Cl)c1F)c1cn2c(c(O)c1=O)C(=O)N1[C@H]3CC[C@H](C3)O[C@@H]1C2` [Compound 88, (2R,5S,13aR)-N-(3-chloro-2-fluorobenzyl)-8-hydroxy-7,9-dioxo-2,3,4,5,7,9,13,13a-octahydro-2,5-methanopyrido[1′,2′:4,5]pyrazino[2,1-b][1,3]oxazepine-10-carboxamide], the Emax at 24 h, 15 µM at PXR turned out to be 27%. Further, in the data set “in vitro”, the CC50 at 5 days was found to be 3230 nM.

On PXR, `O=C(NCc1cc(F)ccc1F)c1cn2c(c(O)c1=O)C(=O)N1[C@H]3CC[C@H](C3)O[C@@H]1C2` [Compound 89, (2R,5S,13aR)-N-(2,5-difluorobenzyl)-8-hydroxy-7,9-dioxo-2,3,4,5,7,9,13,13a-octahydro-2,5-methanopyrido[1′,2′:4,5]pyrazino[2,1-b][1,3]oxazepine-10-carboxamide] registered an Emax at 24 h, 15 µM of 5%. In the data set “in vitro”, this compound showed a CC50 at 5 days of 4630 nM.

For `O=C(NCc1cccc(Cl)c1F)c1cn2c(c(O)c1=O)C(=O)N1[C@H]3CC[C@H](C3)[C@@H]1C2` [Compound 90, (1R,4S,12aR)-N-(3-chloro-2-fluorobenzyl)-7-hydroxy-6,8-dioxo-1,2,3,4,6,8,12,12a-octahydro-1,4-methanodipyrido[1,2-a:1′,2′-d]pyrazine-9-carboxamide], the Emax at 24 h, 15 µM on PXR is 11%. Further, the CC50 at 5 days in the data set “in vitro” is 8090 nM.

As to `O=C(NCc1ccc(F)c(F)c1F)c1cn2c(c(O)c1=O)C(=O)N1[C@H]3CC[C@H](C3)[C@@H]1C2` [Compound 91, (1R,4S,12aR)-7-hydroxy-6,8-dioxo-N-(2,3,4-trifluorobenzyl)-1,2,3,4,6,8,12,12a-octahydro-1,4-methanodipyrido[1,2-a:1′,2′-d]pyrazine-9-carboxamide], the Emax at 24 h, 15 µM at PXR was 3%. In addition, the CC50 at 5 days in the data set “in vitro” worked out at 7180 nM.

On PXR, `O=C(NCc1ccc(Cl)cc1F)c1cn2c(c(O)c1=O)C(=O)N1[C@H]3CC[C@H](C3)[C@@H]1C2` [Compound 92, (1R,4S,12aR)-N-(4-chloro-2-fluorobenzyl)-7-hydroxy-6,8-dioxo-1,2,3,4,6,8,12,12a-octahydro-1,4-methanodipyrido[1,2-a:1′,2′-d]pyrazine-9-carboxamide] registered an Emax at 24 h, 15 µM of 3%. This compound yielded a CC50 at 5 days in “in vitro” of 4550 nM.

Compound `O=C(NCc1c(F)cc(F)cc1Cl)c1cn2c(c(O)c1=O)C(=O)N1[C@H]3CC[C@H](C3)[C@@H]1C2` [Compound 93, (1R,4S,12aR)-N-(2-chloro-4,6-difluorobenzyl)-7-hydroxy-6,8-dioxo-1,2,3,4,6,8,12,12a-octahydro-1,4-methanodipyrido[1,2-a:1′,2′-d]pyrazine-9-carboxamide] came in with an Emax at 24 h, 15 µM at PXR of 9%. This compound registered a CC50 at 5 days in the data set “in vitro” of 6160 nM.

At PXR, `O=C(NCc1c(F)cc(F)cc1F)c1cn2c(c(O)c1=O)C(=O)N1[C@@H]3C[C@@H](C(F)C3F)[C@@H]1C2` (stereo partly drawn) [Compound 103, (1R,4R,12aR)-2,3-difluoro-7-hydroxy-6,8-dioxo-N-(2,4,6-trifluorobenzyl)-1,2,3,4,6,8,12,12a-octahydro-1,4-methanodipyrido[1,2-a:1′,2′-d]pyrazine-9-carboxamide] came in with a maximum response (Emax) at 24 h, 15 µM of 0%. Moreover, the CC50 at 5 days in “in vitro” amounted to 35100 nM.
